Here are results for 23 compounds from ChEMBL document CHEMBL1129839, “The preparation and sar of 4-(anilino), 4-(phenoxy), and 4-(thiophenoxy)-quinazolines: Inhibitors of p56lck and EGF-R tyrosine kinase activity” (Bioorg Med Chem Lett, 1997).

Each structure is given as a SMILES string.

Experiment [1] deals with T1, Tyrosine-protein kinase Lck (Homo sapiens, UniProt P06239). Briefly: Inhibition of p56 Lck tyrosine kinase in Jurkat cells where p56lck autophosphorylation is inhibited. The class given is cell-based.
T1 sequence (P06239 whole entry): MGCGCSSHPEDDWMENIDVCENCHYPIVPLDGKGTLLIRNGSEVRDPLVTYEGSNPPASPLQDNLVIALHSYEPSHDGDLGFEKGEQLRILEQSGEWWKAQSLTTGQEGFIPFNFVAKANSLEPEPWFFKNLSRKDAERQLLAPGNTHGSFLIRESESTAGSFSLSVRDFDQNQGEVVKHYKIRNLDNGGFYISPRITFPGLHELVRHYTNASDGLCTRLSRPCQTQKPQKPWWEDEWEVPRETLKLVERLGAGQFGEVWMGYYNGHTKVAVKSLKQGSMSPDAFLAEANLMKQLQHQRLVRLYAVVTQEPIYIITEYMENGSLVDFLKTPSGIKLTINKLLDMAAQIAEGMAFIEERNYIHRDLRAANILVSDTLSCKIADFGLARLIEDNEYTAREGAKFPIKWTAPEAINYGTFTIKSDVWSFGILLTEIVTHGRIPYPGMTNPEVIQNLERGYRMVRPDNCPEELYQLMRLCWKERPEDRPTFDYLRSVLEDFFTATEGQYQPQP
Experiment [2] addresses T2, Epidermal growth factor receptor (Homo sapiens, UniProt P00533). Briefly: Inhibition of Epidermal growth factor receptor autophosphorylation.
The target in experiment [3] is T1, Tyrosine-protein kinase Lck. The experiment in a line: Inhibition of p56lck kinase autophosphorylation in Jurkat cells. Format: cell-based.
The target of experiment [4] is T2, Epidermal growth factor receptor.
Description: Inhibition of Epidermal growth factor receptor autophosphorylation, 0.05-0.10

T2 sequence (P00533 whole entry): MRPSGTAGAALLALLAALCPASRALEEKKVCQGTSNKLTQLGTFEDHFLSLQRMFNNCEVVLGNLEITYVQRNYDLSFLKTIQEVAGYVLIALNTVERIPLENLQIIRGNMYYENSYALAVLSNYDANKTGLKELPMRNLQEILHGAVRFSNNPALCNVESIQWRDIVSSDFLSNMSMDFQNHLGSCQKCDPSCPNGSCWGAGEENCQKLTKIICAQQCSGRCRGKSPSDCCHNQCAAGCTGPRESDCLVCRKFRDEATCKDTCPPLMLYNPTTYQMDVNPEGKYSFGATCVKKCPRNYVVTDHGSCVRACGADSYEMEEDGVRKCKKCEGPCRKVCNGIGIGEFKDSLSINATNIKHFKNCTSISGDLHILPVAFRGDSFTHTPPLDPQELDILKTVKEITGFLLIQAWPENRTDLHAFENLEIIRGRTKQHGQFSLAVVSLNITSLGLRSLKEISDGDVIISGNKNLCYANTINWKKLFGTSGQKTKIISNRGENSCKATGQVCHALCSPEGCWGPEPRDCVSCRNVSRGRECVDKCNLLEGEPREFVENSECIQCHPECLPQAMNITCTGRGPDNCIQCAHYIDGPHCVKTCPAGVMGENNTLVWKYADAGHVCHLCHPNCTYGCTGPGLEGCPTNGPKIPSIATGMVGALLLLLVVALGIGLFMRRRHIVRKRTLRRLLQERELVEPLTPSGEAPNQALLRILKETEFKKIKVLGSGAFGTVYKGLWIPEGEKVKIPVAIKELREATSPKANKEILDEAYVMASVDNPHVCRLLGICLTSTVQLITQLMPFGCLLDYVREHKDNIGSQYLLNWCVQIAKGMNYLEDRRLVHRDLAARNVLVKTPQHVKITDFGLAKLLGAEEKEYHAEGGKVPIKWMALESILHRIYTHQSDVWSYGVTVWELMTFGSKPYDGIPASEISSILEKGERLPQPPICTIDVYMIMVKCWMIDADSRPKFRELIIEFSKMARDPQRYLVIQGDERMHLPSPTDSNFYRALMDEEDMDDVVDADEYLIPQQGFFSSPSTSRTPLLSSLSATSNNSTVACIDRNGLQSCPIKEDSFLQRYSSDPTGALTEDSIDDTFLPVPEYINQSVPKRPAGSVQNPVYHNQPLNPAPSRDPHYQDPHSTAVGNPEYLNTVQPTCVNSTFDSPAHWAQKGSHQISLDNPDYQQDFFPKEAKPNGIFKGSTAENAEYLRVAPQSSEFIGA

As a reminder, the IC50 is the midpoint of a concentration-inhibition curve. A higher IC50 goes with weaker potency. `COc1ccc(Sc2ncnc3cc(OC)c(OC)cc23)cc1OC`: the IC50 in experiment [1] and in experiment [2] was over 50 µM in each case.
Regarding `COc1cc2ncnc(Oc3cccc(Cl)c3)c2cc1OC`, in experiment [2], the IC50 was determined as 0.02 µM.
On the same count and under the same terms, next, `COc1cc2ncnc(Sc3cccc(Cl)c3)c2cc1OC`: 0.01 µM.
For the compound `COc1cc(Nc2[nH]cnc3ncnc2-3)cc(OC)c1OC`, the IC50 in experiment [1] was 50 µM.
Still for that read-out and setting: next, `COc1cc(Nc2[nH]cnc3nncc2-3)cc(OC)c1OC`: 10 µM.
Consider `COc1cc2ncnc(Nc3cccc(Cl)c3)c2cc1OC`, for which the IC50 in experiment [3] was determined as 5 µM.
`COc1cc2ncnc(Nc3cccc(F)c3)c2cc1OC` returned an IC50 in experiment [1] of 10 µM.
In the case of `COc1cc2nc(Cl)nc(Nc3cc(OC)c(OC)c(OC)c3)c2cc1OC`, the IC50 in experiment [1] was over 100 µM; in experiment [2] it was over 20 µM.
`COc1cc2ncnc(Nc3ccccc3)c2cc1OC` gave an IC50 in experiment [3] of 10 µM.
`COc1ccc2ncnc(Nc3cc(OC)c(OC)c(OC)c3)c2c1`: the results for the IC50 in experiment [1] and in experiment [2] were 10 µM and 0.1 µM, respectively.
The matching figures for `COc1ccc(Nc2ncnc3cc(OC)c(OC)cc23)cc1`: 10 µM and 0.25 µM.
Turning to `COc1cc(Nc2ncnc3c(OC)c(OC)c(OC)cc23)cc(OC)c1OC`, the 50% inhibitory concentration (IC50) in experiment [1] was over 100 µM; in experiment [2], over 20 µM.
Regarding `COc1cc(Nc2ncnc3cc(OC)c(OC)cc23)cc(OC)c1`, the IC50 in experiment [3] (jurkat) amounted to 10 µM; in experiment [2], 3 µM.
In turn, `COc1cc2ncnc(N(C)c3ccccc3)c2cc1OC` had an IC50 in experiment [3] of over 100 µM.
As for `COc1ccc(Nc2ncnc3cc(OC)c(OC)cc23)cc1OC`, the figures for the IC50 in experiment [1] (jurkat) and in experiment [2] were 10 µM and 0.35 µM, respectively.
As to `COc1cc(Nc2ncnc3c(C)cc(C)cc23)cc(OC)c1OC`, the figures for the IC50 in experiment [1] and in experiment [2] were over 100 µM and over 20 µM, respectively.
`COc1cc2ncnc(NCc3ccccc3)c2cc1OC`: it took 0.004 µM to reach half-maximal inhibition in experiment [2] (IC50).
As to `COc1cc(Nc2ncnc3ccc(Cl)cc23)cc(OC)c1OC`, the IC50 in experiment [1] was over 50 µM; in experiment [2], over 1 µM.
For `COc1cc2ncnc(Nc3ccc(O)cc3)c2cc1OC`, the IC50 in experiment [1] was 3 µM; in experiment [2], 0.1 µM.
Take `Clc1cccc(Nc2ncnc3ccccc23)c1`: the figures for the IC50 in experiment [3] and in experiment [4] were 50 µM and 0.05 µM, respectively.
`COc1cc2ncnc(Nc3ccc4c(c3)CCC4)c2cc1OC`: half-maximal inhibition in experiment [1] (IC50) required 50 µM.
On to `COc1cc2ncnc(Nc3ccc(N4CCOCC4)cc3)c2cc1OC`, for which the IC50 in experiment [1] was over 100 µM; in experiment [2], over 1 µM.
The compound `COc1c(C=O)c(O)cc2c1C(=O)c1ccccc1C2=O` [DAMNACANTHAL] returned an IC50 in experiment [1] of 0.017 µM.
